Key:
SaS tumours = assay: Induction of necrosis in SaS tumours; assay type: in vivo; settings: SaS tumour-bearing mice, tumours excised after 24 h, mean score 1-10 by area of necrosis
Procedure: Mice bearing either CaNT or SaS tumours were treated with the test compound and tumours excised after 24 h, fixed in formalin, embedded in paraffin, sectioned and stained with haematoxylin and eosin. Sections were scored based on area of necrosis as follows:
In this assay the effect of a given dose of either a vascular damaging agent or a nitric oxide synthase inhibitor administered alone can be compared with the effect of a combination of the two agents.

CaNT tumours = assay: Tumour functional vascular volume measured by fluorescent dye Hoechst 33342; assay type: in vivo; settings: CaNT tumour-bearing mice; CA4P 25 mg/kg alone, intra peritoneal; 24 hours after treatment
Procedure: Activity Against Tumour Vasculature Measured by Fluorescent Dye.
Tumour functional vascular volume in CaNT tumour-bearing mice was measured using the fluorescent dye Hoechst 33342 according to the method of Smith et al (Brit J Cancer 57, 247–253, 1988). The fluorescent dye was dissolved in saline at 6.25 mg/ml and injected intravenously at 10 mg/kg 24 hours after intra peritoneal drug treatment. One minute later, animals were killed and tumours excised and frozen; 10 μm sections were cut at 3 different levels and observed under UV illumination using an Olympus microscope equipped with epifluorescence. Blood vessels were identified by their fluorescent outlines and vascular volume was quantified using a point scoring system based on that described by Chalkley, (J Natl Cancer Inst, 4, 47–53, 1943). All estimates were based on counting a minimum of 100 fields from sections cut at the 3 different levels.

| Compound | Necrosis score ± SEM (n) (SaS tumours; AMP 10 mg/kg alone) | Necrosis score ± SEM (n) (SaS tumours; CA4P 500 mg/kg alone) | Vascular Volume % ± SEM (n) (CaNT tumours) |
| --- | --- | --- | --- |
| Cc1ccnc(N)c1 [AMP, 2-amino-4-methylpyridine] | 1.0 |  |  |
| COc1ccc(/C=C\c2cc(OC)c(OC)c(OC)c2)cc1OP(=O)(O)O [CA4P, Combretastatin A4 phosphate] |  | 1.7 ± 0.7 | 1.03 ± 0.14 (4) % |

From patent US7087627B1, “Combinations for the treatment of diseases involving angiogenesis” (Angiogene Pharmaceuticals Ltd., priority 1999, dated 2006)
